{"source": "patent US10441557B2", "about": "“Germicidal compositions comprising carboxylic acid mixture and use as topical disinfectants” (priority 2012, dated 2019)", "assay": "Freeze-thaw stability of concentrates", "assay_type": "physicochemical", "protocol": "In this example, concentrates according to the present invention were prepared comprising various surfactants and the effect of those surfactants on the freeze-thaw stability of the samples was determined. The concentrates were prepared for an intended dilution ratio of 1 part concentrate to 39 parts water. Each formulation tested comprised 9.2 wt. % formic acid, 9.4 wt. % lactic acid, 23.2 wt. % sodium α-olefin sulfonate (SAOS), and 21 wt. % of the indicated surfactant, with water comprising the balance.\nThe samples of each formulation were placed in bottles filled to 1.5 inches from the top of the bottles. The bottles containing the samples were placed in a freezer for one day, and removed from the freezer and thawed the subsequent day. The homogeneity of each sample upon thawing was noted. A formulation was considered acceptable if a homogeneous solution was observed upon thawing."}
{"substance": "Cocamidopropylbetaine", "values": [{"measurement": "Physical Stability After 1 Freeze-Thaw Cycle", "result": "Non-homogeneous"}]}
